# Source: US8034781B2, “Angiotensin-(1-7) and angiotensin-(1-7) agonists for inhibition of cancer cell growth” (Wake Forest University Health Sciences, priority 2002, dated 2011)
# Square brackets hold non-standard residues; d marks the D form. Ends that are not written are not given here. Sar = CNCC(=O)O
# How the values were obtained:
# [1] = test system: vascular smooth muscle cells (VSMCs); assay type: cell-based, Sprague-Dawley rats; conditions: for effect of antagonist on Ang-(1-7) attenuation of serum-stimulated thymidine incorporation: 1 μM Ang-(1-7), FBS (FIG. 2)
# Description: (§1) Vascular smooth muscle cells were isolated form 12-14 week old Sprague-Dawley rats by explant culture (Freeman, E. J. et al., Hypertension, 1996, 28:104-108). Human lung and breast cancer cell lines were obtained from American Type Tissue Culture (ATTC) and included cells of the SK-LU-1 and A549 cell lines (both of which are derived from adenocarcinomas) as well as SK-MES-1 cells (derived from non-small cell lung tumors) and ZR-75-1 breast cancer cells.
# (§2) Cells were grown in DMEM with 10% fetal bovine serum (FBS), […] in a humidified 37° C. incubator gassed with 5% CO2 and 95% room air. Cells were grown to subconfluence in either 24-well cluster plates or 100 mm dishes and made quiescent by treatment for 48 h with serum-depleted growth media, prior to the experiments outlined below to measure cell growth (^3H-thymidine incorporation), cell signaling or apoptosis.
# To measure ^3H-thymidine incorporation, quiescent cells were incubated with serum and angiotensin peptides for 24 h at 37° C. ^3H-thymidine (0.25 μCi/well) was added and the cells incubated for an additional 4 h to incorporate the radiolabeled nucleotide. Subsequently, the cell monolayer was washed with cold phosphate-buffered saline (PBS; 50 mM NaPO4, 120 mM NaCl, pH=7.2). The adherent cells were precipitated with cold 10% TCA (4° C. for 30 min) and dissolved in 0.2% SDS in 0.1 N NaOH. Incorporated ^3H-thymidine was determined by liquid scintillation spectrometry, as previously described (Freeman, E. J. et al., Hypertension, 1996, 28:104-108). Growth inhibition was defined as a reduction in the amount of ^3H-thymidine incorporation as compared to the mitogen-stimulated controls.
# During an additional 4 h, cell monolayers were pulsed with ^3H-thymidine (0.25 μCi/well) and harvested.
# [2] = test system: SK-MES-1 lung cancer cells; assay type: cell-based, human
# Description: (§6) Cells were grown in DMEM with 10% fetal bovine serum (FBS), 100 μg/mL penicillin and 100 units/mL streptomycin in a humidified 37° C. incubator gassed with 5% CO2 and 95% room air. Cells were grown to subconfluence in either 24-well cluster plates or 100 mm dishes and made quiescent by treatment for 48 h with serum-depleted growth media, prior to the experiments outlined below to measure cell growth (^3H-thymidine incorporation), cell signaling or apoptosis.
# To measure ^3H-thymidine incorporation, quiescent cells were incubated with serum and angiotensin peptides for 24 h at 37° C. ^3H-thymidine (0.25 μCi/well) was added and the cells incubated for an additional 4 h to incorporate the radiolabeled nucleotide. Subsequently, the cell monolayer was washed with cold phosphate-buffered saline (PBS; 50 mM NaPO4, 120 mM NaCl, pH=7.2). […] Incorporated ^3H-thymidine was determined by liquid scintillation spectrometry, as previously described (Freeman, E. J. et al., Hypertension, 1996, 28:104-108). […]
# [3] = test system: vascular growth stimulated by balloon catheter injury to the rat carotid artery; test: Balloon catheter injury to the rat carotid artery, intravenous minipump infusion; assay type: in vivo
# Description: (§3) In these same animals, the cross-sectional area of the neointima was reduced to 0.09±0.01 mm^2 as compared to 0.12±0.02 mm^2 in saline-treated controls (p<0.05).
# [4] = as above; assay type: in vivo; conditions: rat, plasma, 24 ug/kg/h; intravenous minipump 24 μg/kg/h, 12 days, carotid artery-injured rats
# Description: as §3
# [5] = test system: vascular growth stimulated by balloon catheter injury to the rat carotid artery; conditions: previous studies with rats, 24 μg/kg/hr; cited from earlier work
# [6] = test system: ZR-75-1 breast cancer cells; assay type: cell-based, human
# Description: as §1, §2
# To measure ^3H-thymidine incorporation, quiescent cells were incubated with serum and angiotensin peptides for 24 h at 37° C. ^3H-thymidine (0.25 μCi/well) was added and the cells incubated for an additional 4 h to incorporate the radiolabeled nucleotide. […] Incorporated ^3H-thymidine was determined by liquid scintillation spectrometry, as previously described (Freeman, E. J. et al., Hypertension, 1996, 28:104-108). […]
# [7] = test system: SK-LU-1 lung cancer cells; assay type: cell-based, human; conditions: for effect of antagonist on inhibition of serum-stimulated growth by Ang-(1-7): SK-LU-1 (FIG. 7); for effect on serum-stimulated 3H-thymidine incorporation: SK-LU-1, peptide at 1 or 100 nM (FIG. 8)
# Description: as §6
# AT2 angiotensin receptor = molecular target: T1, AT2 angiotensin receptor (Homo sapiens, UniProt P50052); conditions: cited from earlier work
# T1 sequence (P50052 1-363): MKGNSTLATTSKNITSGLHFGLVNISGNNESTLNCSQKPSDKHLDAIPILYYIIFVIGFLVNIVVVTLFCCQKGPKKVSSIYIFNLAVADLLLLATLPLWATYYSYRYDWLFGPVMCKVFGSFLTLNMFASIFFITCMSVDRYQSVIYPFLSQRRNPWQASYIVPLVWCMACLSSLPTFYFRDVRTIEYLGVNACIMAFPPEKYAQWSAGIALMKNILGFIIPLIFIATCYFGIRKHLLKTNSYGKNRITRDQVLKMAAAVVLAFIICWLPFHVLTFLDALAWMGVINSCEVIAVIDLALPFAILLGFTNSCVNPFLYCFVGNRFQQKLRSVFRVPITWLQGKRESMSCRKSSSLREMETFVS
# [8] = test system: vascular smooth muscle cells (VSMCs); test: Total cell number of VSMCs by Coulter counter; assay type: cell-based, Sprague-Dawley rats; conditions: Ang II alone
# Description: Total cell number in response to treatment with Ang-(1-7) was also determined using a Coulter counter. The number of cells per well increased to 142% of basal following treatment with 1% serum.
# ERK1 = ERK1 phosphorylation in VSMCs, phospho-specific antibodies; assay type: cell-based, rat
# Description: (§4) Reactions were terminated with Triton lysis buffer (50 mM Tris-HCl, pH 7.4, 1% Triton X-100, 100 mM NaCl, 5 mM EDTA, 50 mM NaF, 0.6 μM leupeptin, 0.01 mM Na3VO4 and 0.1 mM PMSF) and protein concentrations determined (Lowry, O. H., et al., J. Biol. Chem., 1951, 193:265-275). Proteins were separated by SDS polyacrylamide gel electrophoresis and transferred to polyvinyl membranes. The activation and autophosphorylation of ERK1 and ERK2 was determined using antibodies specific for the phosphorylated kinases (using antibodies from Cell Signaling Technologies). The immunoreactive product were visualized by enhanced chemiluminescence (ECL, Amersham) and quantified by densitometry, using the MCID image analysis system. The phospho-MAP kinase antibodies only recognize the catalytically activated and phosphorylated forms of MAP kinase (both ERK1 and ERK2 MAP kinase). The blots were also probed with antibodies to ERK1/2, to control for protein loading.
# (§5) The activity of the MAP kinases ERK1 and ERK2 in VSMCs was measured using phospho-specific antibodies that only recognize the activated protein kinases.
# ERK2 = ERK2 phosphorylation in VSMCs, phospho-specific antibodies; assay type: cell-based, rat
# Description: as §4, §5
# AT1 angiotensin receptor = conditions: cited from earlier work
# [9] = lisinopril 20 mg/kg/day for 14 days
# [10] = maximal stimulation by 1 μM Ang II
compound,measurement,setting,value
C#CCCCCCCCCCCCCCCCC(=O)O [17-octadecynoic acid],effect on growth inhibition by Ang-(1-7),"[1]; VSMCs, cytochrome P450 inhibitor",neither a lipoxygenase inhibitor nor the cytochrome P450 inhibitor 17-octadecynoic acid had any effect
"CC[C@H](C)[C@H](NC(=O)[C@H](Cc1ccc(O)cc1)NC(=O)[C@@H](NC(=O)[C@H](CCCNC(=N)N)NC(=O)[C@@H](N)CC(=O)O)C(C)C)C(=O)N[C@@H](Cc1c[nH]cn1)C(=O)N1CCC[C@H]1C(=O)O [Ang-(1-7), Asp-Arg-Val-Tyr-Ile-His-Pro]",IC50,[2],0.4 nM
same,blood pressure,[3]; Ang-(1-7) infusion vs saline,similar
same,heart rate,[3]; Ang-(1-7) infusion vs saline,similar
same,level at time molar at 288 h,[4],0.131 ± 0.0397 nM
same,"change in weight, blood pressure, or heart rate",[5],no change
same,IC50,[6],0.02 nM
same,IC50,[7],0.05 nM
same,IC50 levels at the AT2 angiotensin receptor,AT2 angiotensin receptor,micromolar range
"CCc1nc2c(C)cc(C)nc2n1Cc1ccc(-c2ccccc2-c2nn[nH]n2)cc1 [L158,809]",effect of antagonist on Ang-(1-7) attenuation of serum-stimulated thymidine incorporation,[1]; VSMCs,unaffected
CCCCc1nc(Cl)c(CO)n1Cc1ccc(-c2ccccc2-c2nn[nH]n2)cc1 [Losartan],effect of antagonist on inhibition of serum-stimulated growth by Ang-(1-7),[7],"neither AT1 nor AT2 angiotensin receptor antagonists Losartan and PD123177, respectively, were effective"
Cc1cc(Cn2cnc3c2CC(C(=O)O)N(C(=O)C(c2ccccc2)c2ccccc2)C3)ccc1N (centres unmarked) [PD123177],effect of antagonist on Ang-(1-7) attenuation of serum-stimulated thymidine incorporation,[1]; VSMCs,unaffected
same,effect of antagonist on inhibition of serum-stimulated growth by Ang-(1-7),[7],"neither AT1 nor AT2 angiotensin receptor antagonists Losartan and PD123177, respectively, were effective"
Cc1cc(Cn2cnc3c2C[C@@H](C(=O)O)N(C(=O)C(c2ccccc2)c2ccccc2)C3)ccc1N(C)C [PD 123319],effect of antagonist on Ang-(1-7) attenuation of serum-stimulated thymidine incorporation,[1]; VSMCs,not prevented
"CCN(CC)CC.Nc1ncnc2c1ncn2[C@@H]1O[C@@H]2COP(O)(=S)O[C@H]2[C@H]1O (some centres unmarked) [Rp-cAMPS, Rp-adenosine-3′,5′-cyclic monphosphophorothioate triethylamine salt]",effect on reduction in serum-stimulated 3H-thymidine incorporation by Ang-(1-7) or carbacyclin,"[1]; VSMCs, pretreatment 10 μM (FIG. 10)",completely blocked
CCCCC[C@H](O)/C=C/[C@@H]1[C@H]2C/C(=C/CCCC(=O)O)C[C@H]2C[C@H]1O [carbacyclin],effect on serum-stimulated 3H-thymidine incorporation,"[1]; VSMCs, 5 μM (FIG. 10)",reduction
NCCCC[C@H](N[C@@H](CCc1ccccc1)C(=O)O)C(=O)N1CCC[C@H]1C(=O)O [lisinopril],cross-sectional area of the neointima,[3]; [9],0.09±0.01 mm^2
same,elevation of plasma levels of Ang-(1-7) vs saline,[3]; [9],2.3 fold
same,plasma levels of Ang-(1-7),"[3]; lisinopril 20 mg/kg/day for 14 days, balloon catheter injury",99.1 ± 6.7 pM
Arg-Val-Tyr-Ile-His-Pro-Phe (RVYIHPF; listed as Homo sapiens) [Ang-(2-8)],effect on serum-stimulated 3H-thymidine incorporation,[7],ineffective
Asp-Arg-Val-Tyr-Ile-His-Pro-Phe (DRVYIHPF; listed as Homo sapiens) [Ang II],number of cells per well,[8],145 % of basal
same,increase in ERK1 phosphorylation over basal,ERK1; [10],37 fold
same,increase in ERK2 phosphorylation over basal,ERK2; [10],166 fold
same,effect on 3H-thymidine incorporation into VSMCs,"[1]; peptide alone, dose response (FIG. 1)",dose-dependent stimulation
same,effect on serum-stimulated 3H-thymidine incorporation,[7],ineffective
Asp-Arg-Val-Tyr-Ile-His-[D]Ala (DRVYIH[dA]) [[D-Ala^7]-Ang-(1-7)],competition at the AT1 receptor,AT1 angiotensin receptor,poor competitor
same,effect of antagonist on Ang-(1-7) attenuation of serum-stimulated thymidine incorporation,[1]; VSMCs,blocked
same,effect of antagonist on inhibition of serum-stimulated growth by Ang-(1-7),[7],blocked
same,competition at the AT2 receptor,AT2 angiotensin receptor,poor competitor
DRVYIHPFHL [Ang I],effect on serum-stimulated 3H-thymidine incorporation,[7],ineffective
PDGF,increase of ERK1 activity over basal,ERK1; 10 ng/mL PDGF,16 fold
same,increase of ERK2 activity over basal,ERK2; 10 ng/mL PDGF,26 fold
Sar-Arg-Val-Tyr-Ile-His-Pro-Thr ([Sar]RVYIHPT) [[Sar^1-Thr^8]-Ang II],effect of antagonist on Ang-(1-7) attenuation of serum-stimulated thymidine incorporation,[1]; VSMCs,completely blocked
Val-Tyr-Ile-His-Pro (VYIHP; listed as Homo sapiens) [Ang-(3-7)],effect on serum-stimulated 3H-thymidine incorporation,[7],ineffective
Val-Tyr-Ile-His-Pro-Phe (VYIHPF; listed as Homo sapiens) [Ang-(3-8)],effect on serum-stimulated 3H-thymidine incorporation,[7],ineffective
